In article PMC8391922, “The Combined Effect of Branching and Elongation on the Bioactivity Profile of Phytocannabinoids. Part I: Thermo-TRPs” (Biomedicines, 2021):

Biological target: T1, rat TRPV3 (Rattus norvegicus, UniProt Q4QYD9)
T1 construct: expressed in transfected cells; host or cells: HEK-293
T1 sequence (Q4QYD9 1-791): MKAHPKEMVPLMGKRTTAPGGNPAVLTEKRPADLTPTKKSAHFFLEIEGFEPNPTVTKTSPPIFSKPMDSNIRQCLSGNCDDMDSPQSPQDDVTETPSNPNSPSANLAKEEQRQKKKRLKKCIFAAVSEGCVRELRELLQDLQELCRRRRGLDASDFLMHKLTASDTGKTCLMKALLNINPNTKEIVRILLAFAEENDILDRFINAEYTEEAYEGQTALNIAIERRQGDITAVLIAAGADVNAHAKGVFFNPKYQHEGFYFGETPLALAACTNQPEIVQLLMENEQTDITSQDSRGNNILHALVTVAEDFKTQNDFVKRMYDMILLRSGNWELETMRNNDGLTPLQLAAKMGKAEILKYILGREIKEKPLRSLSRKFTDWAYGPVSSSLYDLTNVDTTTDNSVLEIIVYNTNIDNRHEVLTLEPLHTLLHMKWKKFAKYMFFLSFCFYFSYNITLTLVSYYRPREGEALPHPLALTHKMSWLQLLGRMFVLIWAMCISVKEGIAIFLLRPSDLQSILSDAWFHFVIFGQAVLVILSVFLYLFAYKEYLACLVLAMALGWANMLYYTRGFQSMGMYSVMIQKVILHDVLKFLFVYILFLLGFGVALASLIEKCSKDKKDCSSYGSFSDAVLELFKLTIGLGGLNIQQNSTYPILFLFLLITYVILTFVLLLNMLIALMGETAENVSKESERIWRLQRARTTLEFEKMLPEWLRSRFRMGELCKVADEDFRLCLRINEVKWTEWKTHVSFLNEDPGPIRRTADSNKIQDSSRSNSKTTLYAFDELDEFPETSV
Test: TRPV3-mediated elevation of intracellular Ca2+ (Fluo-4) in transfected HEK-293 cells
Format: cell-based
Settings: for IC50: antagonist/desensitizing, compound added 5 min before agonist thymol 100 μM; for EC50: half-maximal increase in [Ca2+]i, HEK-293, read-out: TRPV3 Potency EC50; for TRPV3 Efficacy (% IM 4 μM): percentage of the response to ionomycin 4 μM, cells sensitized with 2-aminoethoxydiphenyl borate 100 μM
Protocol: Effects of compounds on intracellular Ca^2+ concentration ([Ca^2+]i) were determined using Fluo-4, a selective intracellular fluorescent probe for Ca ^2+. Assays of rat TRPA1, TRPV2, TRPV3, TRPV4, and TRPM8 or human TRPV1 mediated elevation of intracellular Ca ^2+ in transfected HEK-293 cells were performed with a continuous monitoring of [Ca ^2+]i during the experiments. Briefly, human embryonic kidney (HEK-293) cells, stably transfected with rat TRPA1, TRPV2, TRPV3, TRPV4, and TRPM8 or human TRPV1 (selected by geneticin 600 μg mL ^−1) or not transfected, were cultured in EMEM+ 2 mM glutamine + 1% nonessential amino acids +10% FBS and maintained at 37 °C with 5% CO2. TRP-HEK-293 cells express stably high levels of TRP transcripts, while these transcripts were virtually absent in wild-type HEK-293 cells as checked by real-time PCR. On the day of the experiment, the cells were loaded for 1 h in the dark at room temperature with Fluo-4 AM (4 μM in DMSO containin 0.02% Pluronic F-127). The cells were rinsed, resuspended in Tyrode’s solution (145 mM NaCl, 2.5 mM KCl, 1.5 mM CaCl2, 1.2 mM MgCl2, 10 mM D-glucose, and 10 mM HEPES, pH 7.4), and transferred to a quartz cuvette of a spectrofluorimeter (PerkinElmer LS50B; λEX = 488 nm, λEM = 516 nm) equipped with a PTP-1 fluorescence Peltier system (PerkinElmer Life and Analytical Sciences, Waltham, MA, USA) under continuous stirring. Cell fluorescence before and after the addition of various concentrations of test compounds was measured, normalizing the effects against the response to ionomycin (IM, 4 μM). The values of the effect on [Ca^2+]i in HEK-293 cells not transfected were used as baseline and subtracted from the values obtained from transfected cells. For TRPA1, agonist efficacy was expressed as a percentage of the effect on [Ca ^2+]i observed with 100 μM allylisothiocyanate. The potency of the compounds (EC50 values) is determined as the concentration required to produce half-maximal increases in [Ca ^2+]i. In the TRPV3 assay, TRPV3-expressing HEK293 cells were first sensitized with the structurally unrelated agonist 2-aminoethoxydiphenyl borate (100 μM). Antagonist/desensitizing behavior is evaluated against the agonist of the TRP analyzed by adding the compounds directly in the quartz cuvette 5 min before stimulation of cells with the agonist. Allylisothiocyanate (100 μM) was used for TRPA1, capsaicin (0.1 μM) for TRPV1, cannabidiol (2 μM) for TRPV2, thymol (100 μM) for TRPV3, GSK1016790A (10 nM) for TRPV4, and icilin (0.25 μM) for TRPM8. The IC50 value was expressed as the concentration exerting a half-maximal inhibition of agonist effect, taking as 100% the effect on [Ca^2+]i exerted by the agonist alone. Dose-response curve fitting (sigmoidal dose-response variable slope) and parameter estimation were performed with Graph-Pad Prism8 (GraphPad Software Inc., San Diego, CA, USA). All determinations were performed at least in triplicate.

| Structure (SMILES) | IC50 [µM] | EC50 [µM] | TRPV3 Efficacy (% IM 4 μM) [%] |
| --- | --- | --- | --- |
| CCCCCCC(C)(C)c1cc(O)c2c(c1)OC(C)(CCC=C(C)C)C=C2 (stereo not drawn) [8b, Depentyl-α,α-dimethylheptyl-cannabichromene] | > 50 | > 50 | 41.6 ± 1.8 |
| C=C(C)[C@@H]1CCC(C)=C[C@H]1c1c(O)cc(C(C)(C)CCCCCC)cc1O [1b, Depentyl-α,α-dimethylheptyl-cannabidiol] | 32.6 ± 5.1 | 11 ± 1.1 | 15.8 ± 0.4 |
| CCCCCCC(C)(C)c1cc(O)c(C/C=C(\C)CCC=C(C)C)c(O)c1 [7b, Depentyl-α,α-dimethylheptyl-cannabigerol] | 35.4 ± 3.6 | 39.7 ± 0.03 | 64.6 ± 4.8 |
| CCCCC(C)(C)c1cc(O)c2c(c1)OC(C)(CCC=C(C)C)C=C2 (stereo not drawn) [8d, Depentyl-5-α,α-dimethylpentylcannabichromene] | > 100 | – | <10 |
| CCCCCCCc1cc(O)c2c(c1)OC(C)(CCC=C(C)C)C=C2 (stereo not shown) [8c, Depentyl-5-n-heptylcannabichromene] | > 100 | – | <10 |
